Measured values from patent US20220089609A1, “SUBSTITUTED QUINAZOLINONE DERIVATIVES AND THEIR USE AS POSITIVE ALLOSTERIC MODULATORS OF MGLUR4” (DOMAIN THERAPEUTICS, priority 2018, published 2022).
Values joined by “and” are separate entries in the source; they are usually repeats but may differ in a detail not shown here. Equal entries are not always repeated.

Experiments:
[1] = molecular target: T1, human mGluR4 (hmGluR4) (Homo sapiens, UniProt Q14833); experiment: Calcium assay EC50 determination, positive allosteric modulator activity on hmGluR4 transiently over-expressed in HEK-293 cells; format: cell-based; settings: PAM mode with EC20 glutamate; hmGluR4 in HEK-293 cells; intracellular calcium (Fluo4AM); read-out: mGluR4 positive allosteric modulator activity, half maximal effective concentration (EC50)
T1 construct: expressed in transfected cells; host or cells: HEK-293 cells, transient co-transfection by electroporation
In short: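 HEK-293 cells transiently co-transfected with hmGluR4, chimeric G protein and glutamate transporters; Fluo4AM calcium read (ex 485/em 525 nm) on FLIPR Tetra. Compound alone 10 min for agonism, then EC20 glutamate with 3 min recording for PAM activity, versus buffer or EC20 glutamate basal.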

T1 sequence (Q14833 33-912): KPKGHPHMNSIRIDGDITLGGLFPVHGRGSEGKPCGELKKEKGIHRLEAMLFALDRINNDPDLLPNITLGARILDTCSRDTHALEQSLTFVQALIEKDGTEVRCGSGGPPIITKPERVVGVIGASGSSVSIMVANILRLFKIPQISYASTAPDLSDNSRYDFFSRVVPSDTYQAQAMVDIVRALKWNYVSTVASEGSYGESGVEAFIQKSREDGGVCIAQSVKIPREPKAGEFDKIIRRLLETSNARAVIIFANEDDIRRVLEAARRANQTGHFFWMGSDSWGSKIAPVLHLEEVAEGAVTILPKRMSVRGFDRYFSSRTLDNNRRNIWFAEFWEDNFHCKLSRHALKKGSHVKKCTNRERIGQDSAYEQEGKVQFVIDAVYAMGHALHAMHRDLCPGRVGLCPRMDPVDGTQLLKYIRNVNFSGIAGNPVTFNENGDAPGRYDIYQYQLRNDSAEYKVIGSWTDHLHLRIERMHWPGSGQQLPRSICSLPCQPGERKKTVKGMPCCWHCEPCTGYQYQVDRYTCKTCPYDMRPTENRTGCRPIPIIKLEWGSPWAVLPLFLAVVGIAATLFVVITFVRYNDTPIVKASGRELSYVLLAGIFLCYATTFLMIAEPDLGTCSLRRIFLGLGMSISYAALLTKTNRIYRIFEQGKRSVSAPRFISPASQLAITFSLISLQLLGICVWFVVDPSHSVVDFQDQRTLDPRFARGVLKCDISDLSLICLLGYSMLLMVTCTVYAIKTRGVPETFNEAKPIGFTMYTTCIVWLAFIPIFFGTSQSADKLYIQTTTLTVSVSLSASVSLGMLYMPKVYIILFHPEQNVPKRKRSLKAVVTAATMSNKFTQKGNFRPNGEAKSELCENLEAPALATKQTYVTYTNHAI

| EC50 [1] | melting point [°C] | Compound |
| --- | --- | --- |
| 0.1 to 1 µM | 234 to 239 | CCC(=O)N1CCC(COc2ccc3nc(-c4cc5ccsc5cn4)[nH]c(=O)c3c2)CC1 [Compound 48, 6-(1-Propionyl-piperidin-4-ylmethoxy)-2-thieno[2,3-c]pyridin-5-yl-3H-quinazolin-4-one] |
| ≤ 0.1 µM | 90 to 110 | Cc1cc(OC2CCC(=O)N(C)C2)cc2c(=O)[nH]c(-c3cc4sccc4cn3)nc12 (centres unmarked) [Compound 129, 8-Methyl-6-(1-methyl-6-oxo-piperidin-3-yloxy)-2-thieno[3,2-c]pyridin-6-yl-3H-quinazolin-4-one] |
| ≤ 0.1 µM | > 250 | Cc1cc(CN2CCOCC2)cc2c(=O)[nH]c(-c3cc4cccn4cn3)nc12.Cl [Compound 125, 8-Methyl-6-(morpholinomethyl)-2-pyrrolo[1,2-c]pyrimidin-3-yl-3H-quinazolin-4-one hydrochloride] |
| 0.1 to 1 µM | 233 to 240 | Cc1cc(CN2CCCCC2)cc2c(=O)[nH]c(-c3cc4ccsc4cn3)nc12.Cl [Compound 131, 8-Methyl-6-(1-piperidylmethyl)-2-thieno[2,3-c]pyridin-5-yl-3H-quinazolin-4-one hydrochloride] |
| 0.1 to 1 µM | 115 to 125 | Cc1cc(CCN2CCC(O)CC2)cc2c(=O)[nH]c(-c3cc(C(F)(F)F)ccn3)nc12.Cl [Compound 164, 6-(2-(4-hydroxypiperidin-1-yl)ethyl)-8-methyl-2-(4-(trifluoromethyl)pyridin-2-yl)quinazolin-4(3H)-one hydrochloride] |
| 0.1 to 1 µM | 240 to 250 | Cc1cc(CCN2CCC(F)(F)CC2)cc2c(=O)[nH]c(-c3cc(C(F)(F)F)ccn3)nc12.Cl [Compound 165, 6-(2-(4,4-difluoropiperidin-1-yl)ethyl)-8-methyl-2-(4-(trifluoromethyl)pyridin-2-yl)quinazolin-4(3H)-one hydrochloride] |
| 0.1 to 1 µM | 230 to 240 | Cl.O=c1[nH]c(-c2cc3ccsc3cn2)nc2ccc(OCCCc3cnccn3)cc12 [Compound 61, 6-(3-Pyrazin-2-yl-propoxy)-2-thieno[2,3-c]pyridin-5-yl-3H-quinazolin-4-one hydrochloride] |
| 0.1 to 1 µM | > 250 | Cl.O=c1[nH]c(-c2ccc(C(F)(F)F)cn2)nc2ccc(OCCCc3ccncc3)cc12 [Compound 10, 6-[3-(4-pyridyl)propoxy]-2-[5-(trifluoromethyl)-2-pyridyl]-3H-quinazolin-4-one hydrochloride] |
| 1 to 10 µM | > 250 | Cc1cc(CCN2CCCCC2)cc2c(=O)[nH]c(-c3cnc4sccc4c3)nc12.Cl [Compound 128, 8-Methyl-6-(2-piperidin-1-yl-ethyl)-2-thieno[2,3-b]pyridin-5-yl-3H-quinazolin-4-one hydrochloride] |
| 0.1 to 1 µM and < 1 µM | > 250 | Cl.O=c1[nH]c(-c2ccccn2)nc2ccc(OCCCc3ccncc3)cc12 [Compound 5, 2-Pyridin-2-yl-6-(3-pyridin-4-yl-propoxy)-3H-quinazolin-4-one hydrochloride] |
| 0.1 to 1 µM | 149 to 154 | Cl.O=c1[nH]c(-c2cc3sccc3cn2)nc2ccc(OCCCc3cccnc3)cc12 [Compound 37, 6-(3-Pyridin-3-yl-propoxy)-2-thieno[3,2-c]pyridin-6-yl-3H-quinazolin-4-one hydrochloride] |
| 1 to 10 µM | > 250 | Cl.O=c1[nH]c(-c2cc3sccc3cn2)nc2ccc(OCCN3CCOCC3)cc12 [Compound 35, 6-(2-Morpholin-4-yl-ethoxy)-2-thieno[3,2-c]pyridin-6-yl-3H-quinazolin-4-one hydrochloride] |
| ≤ 0.1 µM | > 250 | Cc1cc(CN2CCC3(CC2)COC3)cc2c(=O)[nH]c(-c3cc4sccc4cn3)nc12 [Compound 155, 8-Methyl-6-(2-oxa-7-azaspiro[3.5]nonan-7-ylmethyl)-2-thieno[3,2-c]pyridin-6-yl-3H-quinazolin-4-one] |
